Measurements published in US8232269B2, “Amide compounds useful in therapy” (Pfizer Inc., priority 2008, dated 2012).
Where a name gives a salt, the structure may show the parent alone.

What follows are molecules tested against T1, Progesterone Receptor (PR) (Homo sapiens, UniProt P06401) (assay: In vitro functional assay for progesterone receptor (PR) antagonists: inhibition of progesterone-induced alkaline phosphatase expression in T47D cells). Conditions: antagonist format, 5 nM progesterone, Ki calculated from IC50 with the Cheng-Prusoff equation.
T1 construct: endogenous in cells; host or cells: T47D human breast mammary carcinoma cells
T1 sequence (P06401 1-933): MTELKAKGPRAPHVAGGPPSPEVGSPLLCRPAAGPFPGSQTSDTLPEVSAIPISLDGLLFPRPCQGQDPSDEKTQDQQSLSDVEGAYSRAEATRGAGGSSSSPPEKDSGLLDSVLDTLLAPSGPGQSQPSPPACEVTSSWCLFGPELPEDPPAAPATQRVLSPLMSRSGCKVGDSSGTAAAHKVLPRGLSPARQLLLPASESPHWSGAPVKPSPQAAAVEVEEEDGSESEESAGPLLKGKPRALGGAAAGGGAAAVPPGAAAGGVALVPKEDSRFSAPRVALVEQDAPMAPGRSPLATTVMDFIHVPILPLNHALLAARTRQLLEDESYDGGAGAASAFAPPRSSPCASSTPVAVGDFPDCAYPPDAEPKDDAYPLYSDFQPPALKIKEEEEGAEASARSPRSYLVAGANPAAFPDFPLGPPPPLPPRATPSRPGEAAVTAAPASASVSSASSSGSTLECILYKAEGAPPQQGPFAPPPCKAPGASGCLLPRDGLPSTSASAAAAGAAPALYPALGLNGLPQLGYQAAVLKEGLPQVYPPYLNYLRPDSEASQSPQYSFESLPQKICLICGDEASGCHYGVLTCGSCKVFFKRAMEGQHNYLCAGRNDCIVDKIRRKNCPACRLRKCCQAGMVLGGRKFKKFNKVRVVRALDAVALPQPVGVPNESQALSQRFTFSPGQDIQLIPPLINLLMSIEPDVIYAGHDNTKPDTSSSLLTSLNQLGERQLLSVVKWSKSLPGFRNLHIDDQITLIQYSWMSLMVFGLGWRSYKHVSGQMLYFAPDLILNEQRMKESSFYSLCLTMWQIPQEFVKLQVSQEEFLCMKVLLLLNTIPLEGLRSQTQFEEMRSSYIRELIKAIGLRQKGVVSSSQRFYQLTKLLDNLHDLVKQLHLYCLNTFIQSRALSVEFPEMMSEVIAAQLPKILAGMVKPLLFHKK
Format: cell-based
Source text: 1.0 In vitro Functional Assay for Progesterone Receptor (PR) Antagonists, Agonists and Modulators
The assay for PR antagonism takes advantage of the extensively reported modulation of alkaline phosphatase (AP) expression in human breast T47D mammary carcinoma cells {Beck et al., D. P. (1993). The progesterone antagonist RU486 acquires agonist activity upon stimulation of cAMP signalling pathways. Proc Natl Acad Sci USA 90, 4441-4445; Fensome et al. (2002). New progesterone receptor antagonists: 3,3-disubstituted-5-aryloxindoles. Bioorg Med Chem Lett 12, 3487-3490; Zhang et al., (2002a). 6-Aryl-1,4-dihydro-benzo d1,3oxazin-2-ones: a novel class of potent, selective, and orally active nonsteroidal progesterone receptor antagonists. Journal of Medicinal Chemistry 45, 4379-4382; Zhang et al., (2003). Novel 6-aryl-1,4-dihydrobenzo d oxazine-2-thiones as potent, selective, and orally active nonsteroidal progesterone receptor agonists. Bioorganic & Medicinal Chemistry Letters 13, 1313-1316; Zhang et al., (2002b). Potent nonsteroidal progesterone receptor agonists: synthesis and SAR study of 6-aryl benzoxazines. Bioorganic & Medicinal Chemistry Letters 12, 787-790; Zhang, Z. et al., (2000). In vitro characterization of trimegestone: a new potent and selective progestin. Steroids 65, 637-643}. […] In the absence of progesterone any agonist activity is also observed as an induction of AP activity. By running the assay in two formats (+/−progesterone (P4)), compounds behaving as PR antagonists, agonists, partial agonists or modulators with mixed agonist/antagonist activity can be identified.
Briefly, T47D cells are grown by propagating in DMEM with phenol red+10% FCS+2 mM Glutamine at 37° C./5% CO2. At 70-80% confluence, the media is exchanged for phenol red free DMEM+5% CS-FCS (Assay media). Cells are incubated overnight in assay media then harvested and frozen in assay media containing 10% DMSO at 1.5e7 cells/mL in 2 mL aliquots using a Planer and immediately stored in liquid nitrogen. Vials are removed from liquid nitrogen storage and immediately thawed in a water bath at 37° C. The cell suspension is added dropwise to 20 mL of assay media, then the tube centrifuged at 1000 rpm for 4 minutes, the supernatant is discarded and the pellet re-suspended in 20 mL assay media. T47D cells are then plated at 8750 cells/well in 35 μL assay media in sufficient white solid 384 well TC plates for the assay. For the agonist format assay a further 10 μL of assay media is added to each well. These plates are then cultured for 3-6 hours at 37° C./5% CO2 before compound addition.
Test substances are prepared by in 100% DMSO, half log concentrations from 4 mM in 384 well plates 5 μL/well (referred to here as ‘grandmother plates’). Progesterone is 100 μM made up in ethanol and PBS (i.e. add 1 mL ethanol to progesterone initially to help dissolving) and stored in 0.5-1 mL aliquots at −20° C.
Using a multidrop (Thermolabsystems), 60 μL/well of buffer is added to a 384 well plate—this will be the ‘mother plate’. _Add 45 μL well buffer to grandmother plate using the multidrop (=400 μM 10% DMSO dilution). Mixed and spun to remove air bubbles. • 20 μL is taken from the grandmother plate (400 μM 10% DMSO) and added to the mother plate (=100 μM 2.5% DMSO). Mixed and spun to remove air bubbles Preparation of Max/Min:
Antagonist Min: (Checker Pattern on Plate Map) 1 μM RU-486 (FAC 0.1 μM) • 50 μL of 0.2 mM RU-486 • 10 mL Diluent Addition of Test Substance to Cell Plates • The PlateMate Plus was used to add 5 μL MAX/MIN to cell plates • Then 5 μL test substances are added from the mother plate (after removing max/min PlateMate tips: columns 1 and 24)
Addition of Agonist (5 nM Progesterone FAC) for Antagonist Format Only
25 nM progesterone in assay media is prepared from 100 μM stock (12.5 μL progesterone/50 mL media), from which 10 μL per well is transferred to the assay plate using the PlateMate Plus (already containing cells & compound). […]

| SMILES | Ki |
| --- | --- |
| Cc1c(-c2ccc(C#N)cc2)nn(C2CCOC2)c1C(=O)NC(C)C (single isomer, unassigned) [Example 77 Ent 1, 3-(4-Cyanophenyl)-N-isopropyl-4-methyl-1-(tetrahydrofuran-3-yl)-1H-pyrazole-5-carboxamide] | 69.5 nM |
| Cc1c(-c2ccc(C#N)cc2)nn(C2CCOC2)c1C(=O)NC(C)C (single isomer, unassigned) [Example 77 Ent 2, 3-(4-Cyanophenyl)-N-isopropyl-4-methyl-1-(tetrahydrofuran-3-yl)-1H-pyrazole-5-carboxamide] | 102 nM |
| Cc1c(-c2ccc(C#N)cc2)nn(C2CCOC2)c1C(=O)NC[C@H](C)O (single isomer, unassigned) [Example 78 Diast 1] | > 242 nM |
| Cc1c(-c2ccc(C#N)cc2)nn(C2CCOC2)c1C(=O)NC[C@H](C)O (single isomer, unassigned) [Example 78 Diast 2] | 49.4 nM |
| Cc1c(-c2ccc(C#N)cc2)nn(C2CCOC2)c1C(=O)NC[C@@H](C)O (single isomer, unassigned) [Example 79 Diast 1] | > 766 nM |
| Cc1c(-c2ccc(C#N)cc2)nn(C2CCOC2)c1C(=O)NC[C@@H](C)O (single isomer, unassigned) [Example 79 Diast 2] | 163 nM |
| Cc1c(-c2ccc(C#N)cc2)nn(C2CCOC2)c1C(=O)NCC(C)(C)O (single isomer, unassigned) [Example 80 Ent 1, 3-(4-Cyanophenyl)-N-(2-hydroxy-2-methylpropyl)-4-methyl-1-(tetrahydrofuran-3-yl)-1H-pyrazole-5-carboxamide] | 57.1 nM |
| Cc1c(-c2ccc(C#N)cc2)nn(C2CCOC2)c1C(=O)NCC(C)(C)O (single isomer, unassigned) [Example 80 Ent 2, 3-(4-Cyanophenyl)-N-(2-hydroxy-2-methylpropyl)-4-methyl-1-(tetrahydrofuran-3-yl)-1H-pyrazole-5-carboxamide] | > 733 nM |
| CCc1c(-c2ccc(C#N)cc2)nn(C(C)CC)c1C(=O)NCC(C)(C)O (single isomer, unassigned) [Example 106 Ent 2, 1-sec-Butyl-3-(4-cyanophenyl)-4-ethyl-N-(2-hydroxy-2-methylpropyl)-1H-pyrazole-5-carboxamide] | 38.2 nM |
| CCc1c(-c2ccc(C#N)cc2)nn(C(C)CC)c1C(=O)NCC(=O)NC (single isomer, unassigned) [Example 109 Ent 1, 1-sec-Butyl-3-(4-cyanophenyl)-4-ethyl-N-[2-(methylamino)-2-oxoethyl]-1H-pyrazole-5-carboxamide] | 99 nM |
| CCc1c(-c2ccc(C#N)cc2)nn(C(C)CC)c1C(=O)NCC(=O)NC (single isomer, unassigned) [Example 109 Ent 2, 1-sec-Butyl-3-(4-cyanophenyl)-4-ethyl-N-[2-(methylamino)-2-oxoethyl]-1H-pyrazole-5-carboxamide] | 190 nM |
| CC(C)n1nc(-c2ccc(C#N)cc2)c(C2CC2)c1C(=O)N[C@@H]1CCNC1 [Example 8, 3-(4-Cyanophenyl)-4-cyclopropyl-1-isopropyl-N-[(3R)-pyrrolidin-3-yl]-1H-pyrazole-5-carboxamide hydrochloride] | 162 nM |
| CC(C)n1nc(-c2ccc(C#N)cc2)c(C2CC2)c1C(=O)N[C@H]1CCNC1 [Example 9, 3-(4-Cyanophenyl)-4-cyclopropyl-1-isopropyl-N-[(3S)-pyrrolidin-3-yl]-1H-pyrazole-5-carboxamide hydrochloride] | 836 nM |
| CC(C)n1nc(-c2ccc(C#N)cc2)c(C2CC2)c1C(=O)NC1CNC1 [Example 10, N-Azetidin-3-yl-3-(4-cyanophenyl)-4-cyclopropyl-1-isopropyl-1H-pyrazole-5-carboxamide] | 285 nM |

Molecules with a lower Ki, results first:

| Ki | SMILES |
| --- | --- |
| 19.8 nM | CC(C)n1nc(-c2ccc(C#N)cc2)c(C2CC2)c1C(=O)NCC(C)(C)O [Example 1, 3-(4-Cyano-phenyl)-4-cyclopropyl-N-(2-hydroxy-2-methylpropyl)-1-isopropyl-1H-pyrazole-5-carboxamide] |
| 17.2 nM | CCC(=O)N1CCC(NC(=O)c2c(C3CC3)c(-c3ccc(C#N)cc3)nn2C(C)C)C1 (stereo in doubt) [Example 12, 3-(4-Cyanophenyl)-4-cyclopropyl-1-isopropyl-N-[(3S)-1-propionylpyrrolidin-3-yl]-1H-pyrazole-5-carboxamide] |
| 14.8 nM | CCc1c(-c2ccc(C#N)cc2)nn(C(C)CC)c1C(=O)NCC(C)(C)O (single isomer, unassigned) [Example 106 Ent 1, 1-sec-Butyl-3-(4-cyanophenyl)-4-ethyl-N-(2-hydroxy-2-methylpropyl)-1H-pyrazole-5-carboxamide] |
| 13.9 nM | CC(C)n1nc(-c2ccc(C#N)cc2)c(C2CC2)c1C(=O)NC[C@@H](C)O [Example 3, 3-(4-Cyano-phenyl)-4-cyclopropyl-N-[(2R)-2-hydroxypropyl]-1-isopropyl-1H-pyrazole-5-carboxamide] |
| 9.73 nM | CC(C)n1nc(-c2ccc(C#N)cc2)c(C2CC2)c1C(=O)NC1CN(C(=O)OC(C)(C)C)C1 [Example 7, tert-Butyl 3-({[3-(4-cyanophenyl)-4-cyclopropyl-1-isopropyl-1H-pyrazol-5-yl]carbonyl}amino)azetidine-1-carboxylate] |
| 9.39 nM | CC(C)n1nc(-c2ccc(C#N)cc2)c(C2CC2)c1C(=O)NC[C@H](C)O [Example 2, 3-(4-Cyano-phenyl)-4-cyclopropyl-N-[(2S)-2-hydroxypropyl]-1-isopropyl-1H-pyrazole-5-carboxamide] |
| 7.92 nM | CC(C)n1nc(-c2ccc(C#N)cc2)c(C2CC2)c1C(=O)N[C@@H]1CCN(C(=O)OC(C)(C)C)C1 [Example 5, tert-Butyl (3R)-3-({[3-(4-cyanophenyl)-4-cyclopropyl-1-isopropyl-1H-pyrazol-5-yl]carbonyl}amino)-pyrrolidine-1-carboxylate] |
| 7.06 nM | CC(C)NC(=O)c1c(C2CC2)c(-c2ccc(C#N)cc2)nn1C(C)C [Example 4, 3-(4-Cyano-phenyl)-4-cyclopropyl-N,1-diisopropyl-1H-pyrazole-5-carboxamide] |
